Tests used:
[1] = tested on: pentylenetetrazol-induced clonic convulsions in mice; assay: Pentazol clonic convulsions in mice, i.p. (Procedure 400); type: in vivo; conditions: for ED50: Mus musculus, ip, i.p. 30 min before 150 mg/kg pentylenetetrazol s.c., seizures inhibited in 50% of the animals, read-out: ED50, activity against pentazol induced convulsions, clonic
Method: II. Pentazol clonic conv. mice (i.p.) (Procedure 400)
(§1) Pentylenetetrazol induces clonic and tonic convulsions in mice at doses of 60-120 mg/kg s.c. The mechanism is unknown but seems to be due to some effects through the GABA receptor/benzodiazepine receptor/chloride ionophore complex. Antagonism of convulsions induced by maximal doses of pentylenetetrazol is considered predictive for drugs effective against petit mal epilepsia and anxiety.
150 mg/kg pentylenetetrazol dissolved in 0.9% NaCl is given by the subcutaneous route in volumes of 15 ml/kg to male or female NMRI mice weighing 20-25 g 30 min after an intraperitoneal injection of a test compound.
The ED50 value is calculated as the dose in μg/kg at which seizures are inhibited in 50% of the animals using a computer program based on the method of Litchfield and Wilcoxon (1949).

benzodiazepine receptors = assay: In vivo inhibition of 3H-flunitrazepam binding to mouse forebrain membranes (Procedure 130); design: species or system mice; conditions: for ED50 binding in vivo: i.p. 15 min before 3H-FNM i.v., dose which inhibits 50% of specific 3H-FNM binding, mouse forebrain
Method: I. In vivo inhibition of ^3 H-flunitrazepam binding to mouse forebrain membranes by test substances administered intraperitoneally. (Procedure 130)
Twenty minutes after a dose of ^3 H-flunitrazepam (^3 H-FNM) (200 μCi/kg, i.v.) the amount of specific ^3 H-FNM binding to brain benzodiazepine receptors has reached its maximal value.
Suspensions of test substances (2 mg/ml) are prepared in 5% Duphasol-X* by sonification for 10 min using a Branson B15 microtip ultrasonifier (setting 7). Groups of three mice (female, NMR, 18-22 gram) are injected with the test substance at 100 mg/kg intraperitoneally. Fifteen minutes after test substance administration the mice are challenged with 4 μCi intraveneously of ^3 H-FNM (70-90 Ci/mole) in 200 μl physiological saline. Twenty minutes after ^3 H-FNM administration mice are sacrificed by decapitation, the forebrains rapidly excised (within 30 sec) and homogenized in 12 ml of icecold 25 mM KH2 PO4, pH 7.1, using an Ultra-Turrax homogenizer fitted with an N 10 shaft. Two aliquots of 1 ml are immediately filtered through Whatman GF/C glassfibre filters and washed with 2×5 ml of the above mentioned buffer. The amounts of radioactivity on the filters are determined by conventional scintillation counting. One group of untreated mice serves as controls. One to three mice are injected with 25 mg/kg clonazepam i.p. 30 minutes before ^3 H-FNM to determine the amount of non-specific ^3 H-FNM binding, which should be between 8-15% of total binding.
*(™Duphar; castor-oil-ethylene oxide derivative for emulsifying and solubilizing oil and other water-insoluble substances)
When doses of 100 mg/kg inhibit more than 50% of specific ^3 H-flunitrazepam binding; test substances are administered in doses, which are factors of 3.16 times lower than 100 mg/kg.
The ED50 for a test substance is defined as that dose which inhibits 50% of specific ^3 H-FNM binding. Specific binding is the amount of binding in controls minus the amount binding in clonazepam-treated mice.
The ED50 value is determined from dose response curves. If only one dose of test substance is administered the ED50 value is calculated as follows, provided that the inhibition of specific binding is within the range of 25-75%: [formula] where Co is specific binding in controls and Cx is specific binding in mice treated with test substance.

[2] = tested on: pentylenetetrazol-induced tonic convulsions in mice; assay: Pentazol tonic convulsions in mice, i.p. (Procedure 401); type: in vivo; conditions: for ED50: Mus musculus, ip, i.p. 30 min before 150 mg/kg pentylenetetrazol s.c., seizures inhibited in 50% of the animals, read-out: ED50, activity against pentazol induced convulsions, tonic
Method: III. Pentazol tonic conv. mice i.p. (Procedure 401)
as §1, with “seem” for “seems”
150 mg/kg pentylenetetrazol (Pentazol, Sigma) dissolved in 0.9% NaCl is given by the subcutaneous route in volumes of 15 ml/kg to male or female NMRI mice weighing 20-25 g 30 min after an intraperitoneal injection of a test compound.
The ED50 value is calculated as the dose in μg/kg where seizures are inhibited in 50% of the animals using a computer program based on the method of Litchfield and Wilcoxon (1949).

[3] = compared to analogue (D), Roche EP 150,040 ex. 44

SMILES: CN1Cc2c(-c3noc(C4CC4)n3)ncn2-c2ccccc2C1=O [A, 3-(5-cyclopropyl-1,2,4-oxadiazol-3-yl)-5,6-dihydro-5-methyl-6-oxo-4H-imidazo[1,5-a][1,4]benzodiazepine]
- ED50 [1]: 0.07 mg/kg
- times as active in protecting against pentetrazol induced clonic convulsions [1, 3]: approximately 40 times
- times as active in protecting against pentetrazol induced clonic convulsions ([1]; compared to compound E): 185 times
- times as active in binding affinity for the benzodiazepine receptor (benzodiazepine receptors; [3]): more than 4 times
- times more as active in binding affinity for the benzodiazepine receptor (benzodiazepine receptors; compared to compound E): 12 times
- ED50 binding in vivo (benzodiazepine receptors): 80 µg/kg
- ED50 [2]: 0.03 mg/kg
- times as active in protecting against pentetrazol induced tonic convulsions [2, 3]: 10 times
- times as active in protecting against pentetrazol induced tonic convulsions ([2]; compared to compound E): 33 times

SMILES: CCc1nc(-c2ncn3c2CN(C)C(=O)c2ccccc2-3)no1 [B]
- ED50 [1]: 27 mg/kg
- ED50 binding in vivo (benzodiazepine receptors): 1,800 μg/kg
- ED50 [2]: 1.3 mg/kg

SMILES: CC(C)c1noc(-c2ncn3c2CN(C)C(=O)c2ccccc2-3)n1 [C]
- ED50 [1]: 3 mg/kg
- ED50 binding in vivo (benzodiazepine receptors): 600 µg/kg
- ED50 [2]: 1.7 mg/kg

SMILES: CN1Cc2c(-c3nc(C4CC4)no3)ncn2-c2ccccc2C1=O [D]
- ED50 [1]: 2.7 mg/kg
- ED50 binding in vivo (benzodiazepine receptors): 340 µg/kg
- ED50 [2]: 0.3 mg/kg

SMILES: O=C1c2c(Cl)cccc2-n2cnc(-c3noc(C4CC4)n3)c2C2CCCN12 (stereo not drawn) [E]
- ED50 [1]: 13 mg/kg
- ED50 binding in vivo (benzodiazepine receptors): 960 µg/kg
- ED50 [2]: 1 mg/kg

Reference: US4622321A, “Oxadiazolylimidazobenzodiazepine, compositions, and method” (AS Ferrosan, priority 1985, dated 1986)
